From publication PMC9652372, “Glycolytic flux control by drugging phosphoglycolate phosphatase” (Nature Communications, 2022)
In brackets after ≈: the same amount, converted by molar mass. Several values for one entry are separate records, joined by “and”; a condition that tells them apart may be missing. Equal entries are not always repeated.

How the values were obtained:
[1] = target: T1, murine PGP (Mus musculus, UniProt Q8CHP8); assay: SAR: CP1, CP2 and analogs on PGP phosphatase activity (PG); assay type: biochemical; parameters: His6 (N, cleaved yes); made in house; host or cells: Escherichia coli BL21 (DE3), pETM11, co-expressed with groES-groEL-tig; details: for inhibition of mPGP activity at 40 µM CP compared to DMSO control (%): single experiments Exp #1-3
T1 sequence (Q8CHP8 1-321): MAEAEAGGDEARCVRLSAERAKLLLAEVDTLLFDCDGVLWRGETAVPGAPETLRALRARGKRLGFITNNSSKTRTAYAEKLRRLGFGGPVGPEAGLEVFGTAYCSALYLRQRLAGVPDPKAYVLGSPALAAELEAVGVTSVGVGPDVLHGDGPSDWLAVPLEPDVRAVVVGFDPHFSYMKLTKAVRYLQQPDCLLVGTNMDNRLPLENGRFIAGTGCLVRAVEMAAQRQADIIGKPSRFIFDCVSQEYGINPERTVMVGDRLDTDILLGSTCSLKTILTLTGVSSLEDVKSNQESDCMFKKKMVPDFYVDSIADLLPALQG
Experimental: However, the DMSO concentration was kept constant across each assay. For SAR experiments, all compound stocks were prepared at 10 mM in 100% DMSO. A constant final DMSO concentration of 0.4% was maintained under all conditions, and solvent control samples contained 0.4% DMSO without compounds.
PGP phosphatase activity were assessed using recombinant, purified murine PGP and PG as a

[2] = Compound solubility in 100% DMSO
[3] = target: T1, murine PGP

O=C(O)c1ccccc1N1C(=O)c2ccc(Oc3ccc4c(c3)C(=O)N(c3ccccc3C(=O)O)C4=O)cc2C1=O [1B]
inhibition of mPGP activity at 40 µM CP compared to DMSO control (%) [1]: 29.6196% and 23.1638% and 21.6216%

O=C(O)c1cc(Cc2ccc(NC(=O)c3ccccc3[N+](=O)[O-])c(C(=O)O)c2)ccc1NC(=O)c1ccccc1[N+](=O)[O-] [2B]
solubility in 100% DMSO [2]: 10 mM (≈ 5.84 mg/mL)
inhibition of mPGP activity at 40 µM CP compared to DMSO control (%) [1]: 97.486% and 99.4924% and 100.275%
mPGP activity in presence of CP relative to DMSO controls, mPGP on PG (norm.) ([1]; CP log[M] -4.39794): 0.02406 and 0.01842 and 0.02506
mPGP activity in presence of CP relative to DMSO controls, mPGP on PG (norm.) ([1]; CP log[M] -4.69897): 0.04813 and 0.03947 and 0.05013
mPGP activity in presence of CP relative to DMSO controls, mPGP on PG (norm.) ([1]; CP log[M] -5): 0.08824 and 0.08421 and 0.08772
mPGP activity in presence of CP relative to DMSO controls, mPGP on PG (norm.) ([1]; CP log[M] -5.30103): 0.1631 and 0.1684 and 0.1604
mPGP activity in presence of CP relative to DMSO controls, mPGP on PG (norm.) ([1]; CP log[M] -5.60206): 0.2914 and 0.2711 and 0.2932
mPGP activity in presence of CP relative to DMSO controls, mPGP on PG (norm.) ([1]; CP log[M] -5.90309): 0.4679 and 0.4553 and 0.4662
mPGP activity in presence of CP relative to DMSO controls, mPGP on PG (norm.) ([1]; CP log[M] -6.20412): 0.6203 and 0.5816 and 0.584
mPGP activity in presence of CP relative to DMSO controls, mPGP on PG (norm.) ([1]; CP log[M] -6.50515): 0.7781 and 0.7842 and 0.7769
mPGP activity in presence of CP relative to DMSO controls, mPGP on PG (norm.) ([1]; CP log[M] -6.80618): 0.8663 and 0.8184 and 0.817
mPGP activity in presence of CP relative to DMSO controls, mPGP on PG (norm.) ([1]; CP log[M] -7.10721): 0.9358 and 0.8579 and 0.8521
mPGP activity in presence of CP relative to DMSO controls, mPGP on PG (norm.) ([1]; CP log[M] -7.40824): 0.9332 and 0.9316 and 0.9248
PGP inhibitory potency compared to parental compound ([1]; PG dephosphorylation assay): slightly more potent than the parental compound

Cc1nnc(SCC(=O)Nc2ccc(Cc3ccc(NC(=O)CSc4nnc(C)s4)c(C(=O)O)c3)cc2C(=O)O)s1 [2E]
solubility in 100% DMSO [2]: 100 mM (≈ 63.1 mg/mL)
inhibition of mPGP activity at 40 µM CP compared to DMSO control (%) [1]: 43.2961% and 38.3249% and 35.989%

O=C(O)c1ccccc1NC(=O)c1ccccc1Oc1ccccc1C(=O)Nc1ccccc1C(=O)O [1D]
inhibition of mPGP activity at 40 µM CP compared to DMSO control (%) [1]: 14.6739% and 27.6836% and 20.8494%

O=C(O)c1cc2ccccc2c(-c2c(O)c(C(=O)O)cc3ccccc23)c1O [GYJACFGQPFXKCA-UHFFFAOYSA-N]
IC50 [3]: > 50 µM

O=C(O)c1cccc(NC(=O)c2ccc(Oc3ccc(C(=O)Nc4cccc(C(=O)O)c4)cc3)cc2)c1 [1C]
inhibition of mPGP activity at 40 µM CP compared to DMSO control (%) [1]: 57.0652% and 64.9718% and 66.7954%
mPGP activity in presence of CP relative to DMSO controls, mPGP on PG (norm.) ([1]; CP log[M] -4): 0.1618 and 0.1854 and 0.172
mPGP activity in presence of CP relative to DMSO controls, mPGP on PG (norm.) ([1]; CP log[M] -4.12494): 0.2268 and 0.2271
mPGP activity in presence of CP relative to DMSO controls, mPGP on PG (norm.) ([1]; CP log[M] -4.30103): 0.3124 and 0.2854 and 0.2844
mPGP activity in presence of CP relative to DMSO controls, mPGP on PG (norm.) ([1]; CP log[M] -4.60206): 0.427 and 0.4195 and 0.4312
mPGP activity in presence of CP relative to DMSO controls, mPGP on PG (norm.) ([1]; CP log[M] -4.69897): 0.5416 and 0.5073 and 0.4404
mPGP activity in presence of CP relative to DMSO controls, mPGP on PG (norm.) ([1]; CP log[M] -4.82391): 0.6225 and 0.5805 and 0.5711
mPGP activity in presence of CP relative to DMSO controls, mPGP on PG (norm.) ([1]; CP log[M] -5): 0.7056 and 0.6098 and 0.6376
mPGP activity in presence of CP relative to DMSO controls, mPGP on PG (norm.) ([1]; CP log[M] -5.30103): 0.8 and 0.7439 and 0.7317
mPGP activity in presence of CP relative to DMSO controls, mPGP on PG (norm.) ([1]; CP log[M] -5.60206): 0.9101 and 0.8268 and 0.7615
mPGP activity in presence of CP relative to DMSO controls, mPGP on PG (norm.) ([1]; CP log[M] -5.90309): 0.8683 and 0.8326

O=C(Cc1cccs1)Nc1ccc(Cc2ccc(NC(=O)Cc3cccs3)c(C(=O)O)c2)cc1C(=O)O [2C]
inhibition of mPGP activity at 40 µM CP compared to DMSO control (%) [1]: 80.4469% and 79.9492% and 79.3956%
mPGP activity in presence of CP relative to DMSO controls, mPGP on PG (norm.) ([1]; CP log[M] -4.09691): 0.1542 and 0.1663 and 0.1408
mPGP activity in presence of CP relative to DMSO controls, mPGP on PG (norm.) ([1]; CP log[M] -4.39794): 0.2193 and 0.2518 and 0.2324
mPGP activity in presence of CP relative to DMSO controls, mPGP on PG (norm.) ([1]; CP log[M] -4.69897): 0.388 and 0.3967 and 0.3732
mPGP activity in presence of CP relative to DMSO controls, mPGP on PG (norm.) ([1]; CP log[M] -5): 0.5639 and 0.5534 and 0.5023
mPGP activity in presence of CP relative to DMSO controls, mPGP on PG (norm.) ([1]; CP log[M] -5.30103): 0.6916 and 0.6556 and 0.5915
mPGP activity in presence of CP relative to DMSO controls, mPGP on PG (norm.) ([1]; CP log[M] -5.60206): 0.788 and 0.7767 and 0.6502
mPGP activity in presence of CP relative to DMSO controls, mPGP on PG (norm.) ([1]; CP log[M] -5.90309): 0.8578 and 0.8527 and 0.8404
mPGP activity in presence of CP relative to DMSO controls, mPGP on PG (norm.) ([1]; CP log[M] -6.20412): 0.853 and 0.8789 and 0.9014
mPGP activity in presence of CP relative to DMSO controls, mPGP on PG (norm.) ([1]; CP log[M] -6.50515): 0.9181 and 0.905 and 0.9155
mPGP activity in presence of CP relative to DMSO controls, mPGP on PG (norm.) ([1]; CP log[M] -6.80618): 0.9349 and 0.9264 and 0.946
mPGP activity in presence of CP relative to DMSO controls, mPGP on PG (norm.) ([1]; CP log[M] -7.10721): 1.002 and 0.9691 and 0.9624

COc1ccc(C(=O)Nc2ccccc2C(=O)O)cc1 [1E]
inhibition of mPGP activity at 40 µM CP compared to DMSO control (%) [1]: 33.1522% and 38.1356% and 45.1737%

O=C(Nc1ccc(Cc2ccc(NC(=O)c3cccs3)c(C(=O)O)c2)cc1C(=O)O)c1cccs1 [2D]
solubility in 100% DMSO [2]: 50 mM (≈ 25.3 mg/mL)
inhibition of mPGP activity at 40 µM CP compared to DMSO control (%) [1]: 93.8547% and 93.1472% and 91.7582%
mPGP activity in presence of CP relative to DMSO controls, mPGP on PG (norm.) ([1]; CP log[M] -4.39794): 0.09632 and 0.08995 and 0.05602
mPGP activity in presence of CP relative to DMSO controls, mPGP on PG (norm.) ([1]; CP log[M] -4.69897): 0.1303 and 0.1085 and 0.126
mPGP activity in presence of CP relative to DMSO controls, mPGP on PG (norm.) ([1]; CP log[M] -5): 0.1756 and 0.1746 and 0.1485
mPGP activity in presence of CP relative to DMSO controls, mPGP on PG (norm.) ([1]; CP log[M] -5.30103): 0.2578 and 0.2672 and 0.2745
mPGP activity in presence of CP relative to DMSO controls, mPGP on PG (norm.) ([1]; CP log[M] -5.60206): 0.4504 and 0.4206 and 0.395
mPGP activity in presence of CP relative to DMSO controls, mPGP on PG (norm.) ([1]; CP log[M] -5.90309): 0.5949 and 0.6032 and 0.5826
mPGP activity in presence of CP relative to DMSO controls, mPGP on PG (norm.) ([1]; CP log[M] -6.20412): 0.7592 and 0.7328 and 0.6807
mPGP activity in presence of CP relative to DMSO controls, mPGP on PG (norm.) ([1]; CP log[M] -6.50515): 0.8952 and 0.8386 and 0.8543
mPGP activity in presence of CP relative to DMSO controls, mPGP on PG (norm.) ([1]; CP log[M] -6.80618): 0.932 and 0.8836 and 0.7843
mPGP activity in presence of CP relative to DMSO controls, mPGP on PG (norm.) ([1]; CP log[M] -7.10721): 0.9207 and 0.918 and 0.9468
mPGP activity in presence of CP relative to DMSO controls, mPGP on PG (norm.) ([1]; CP log[M] -7.40824): 0.9632 and 0.9206 and 0.9552
